Key:
BACE1 [1] = target: T1, BACE1 (Homo sapiens (Human), UniProt P56817); assay: BACE1 binding assay (SPA-based radioligand binding); details: pH 4.5, 10 nM radioligand, Ki calculated from IC50
Experimental: The binding assay was performed as SPA-based assay using a biotinylated form of human BACE1 recombinantly expressed and subsequently purified from Freestyle HEK293 cells. The binding assay was run in a 50 mM sodium acetate buffer, pH 4.5 containing 50 mM NaCl and 0.03% Tween-20 in white clear bottom 384 plates (Corning #3653). 10 nM (final concentration) radioligand ([^3H]—N-((1S,2R)-1-benzyl-3-cyclopropylamino-2-hydroxy-propyl)-5-(methanesulfonyl-methyl-amino)-N—((R)-1-phenyl-ethyl)-isophthalamide) (TRQ11569 purchased from GE Healthcare) was mixed with test compound at a given concentration, 6 nM (final concentration) human BACE1 and 25 μg Streptavidin coated PVT core SPA beads (RPNQ0007, GE Healthcare Life Sciences) in a total volume of 40 μl. Several concentrations of each test compound were tested in the assay for IC50 determination. The plates were incubated for one hour at room temperature and counted in a Wallac Trilux counter. Total and non-specific binding were determined using buffer and 1 μM (final concentration) of the high affinity BACE1 reference inhibitor (S)-6-[3-chloro-5-(5-prop-1-ynyl-pyridin-3-yl)-thiophen-2-yl]-2-imino-3,6-dimethyl-tetrahydro-pyrimidin-4-one, respectively. For each test compound, a IC50 value (the concentration mediating 50% inhibition of the specific binding of the radioligand) was determined from concentration-response curve and used to calculate the Ki from the equation Ki=IC50/(1+L/Kd), where L and Kd are the final concentration of the radioligand used in the assay and the dissociation constant of the radioligand, respectively. The Kd of the radioligand was determined from saturation binding experiments.

BACE1 [2] = target: T1, BACE1; assay: BACE1 efficacy assay (FRET-based, commercial BACE1 kit); assay type: biochemical; details: 10 μM test compound
Experimental: The efficacy assay was performed as a FRET-based assay using a commercially available BACE1 kit (Life Technologies, P2985). 2 μl test compound at 10 μM (final concentration) and 15 μl BACE1 enzyme from the kit (final concentration 3 nM) were preincubated for 15 minutes at room temperature before addition of 15 μl of substrate from the kit (250 nM final concentration) and incubated for additional 90 minutes at room temperature. The assay plate was subsequently read in a Pherastar (Ex540/Em590). The enzyme activity observed in presence of test compound were normalized to the enzyme activity observed in presence of buffer and 10 μM (final concentration) of the high affinity BACE1 reference inhibitor (S)-6-[3-Chloro-5-(5-prop-1-ynyl-pyridin-3-yl)-thiophen-2-yl]-2-imino-3,6-dimethyl-tetra-hydropyrimidin-4-one, respectively. The efficacy of the test compounds was evaluated at 10 μM (final concentration) and defined as the percent inhibition of the enzyme activity using the equation % inhibition=100%−normalized enzyme activity in percent.

P-gp (MDR1) = assay: MDCK-MDR1 assay (permeability, efflux ratio); assay type: in vitro ADME; details: dog, Papp BA/Papp AB, 60-minute incubation, Pgp substrate when ≥2
Experimental: The permeability of the test compounds was assessed in MDCK-MDR1 cells that were cultured to confluency (4-6 days) in a 96 transwell plate. Test compounds were diluted with the transport buffer (HBSS+1% BSA) to a concentration of 0.5 μM and applied to the apical or basolateral side of the cell monolayer. Permeation of the test compounds from A to B direction or B to A direction was determined in triplicate over a 60-minute incubation time at 37° C. and 5% CO2 with a relative humidity of 95%. Test compounds were quantified by LC-MS/MS analysis based on the peaks area ratios of analyte/IS in both the receiver and donor wells of the transwell plate.
The apparent permeability coefficient Papp (cm/s) was calculated using the equation: Papp=(dCr/dt)×Vr/(A×C0)
Where dCr/dt is the cumulative concentration of compound in the receiver chamber as a function of time (M/s); Vr is the solution volume in the receiver chamber (0.05 mL on the apical side; 0.25 mL on the basolateral side); A is the surface area for the transport, i.e. 0.0804 cm^2 for the area of the monolayer; C0 is the initial concentration in the donor chamber (VIM).
Compounds are classified Pgp substrates when efflux ratio (Papp BA/Papp AB) is ≥2.

T1 sequence (P56817 46-501): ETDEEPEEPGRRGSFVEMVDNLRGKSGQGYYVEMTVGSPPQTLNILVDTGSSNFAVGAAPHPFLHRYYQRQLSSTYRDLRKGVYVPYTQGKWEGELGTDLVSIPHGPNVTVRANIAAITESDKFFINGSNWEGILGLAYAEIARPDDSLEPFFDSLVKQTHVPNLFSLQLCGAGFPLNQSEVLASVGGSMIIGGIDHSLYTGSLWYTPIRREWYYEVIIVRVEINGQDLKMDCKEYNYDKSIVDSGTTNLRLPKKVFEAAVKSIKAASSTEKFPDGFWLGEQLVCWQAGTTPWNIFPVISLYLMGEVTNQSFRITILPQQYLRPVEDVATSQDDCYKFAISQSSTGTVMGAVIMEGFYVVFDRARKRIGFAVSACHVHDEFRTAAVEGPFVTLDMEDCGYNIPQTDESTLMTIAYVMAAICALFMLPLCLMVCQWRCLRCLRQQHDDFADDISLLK

SMILES | Ki (BACE1 [1]) | inhibition at 10 µM (BACE1 [2]) | efflux ratio at 60 min, 0.5 μM (P-gp (MDR1))
C[C@@]1(F)C[C@H](F)[C@@](C)(c2cc(NC(=O)c3ccn(C(F)F)n3)ccc2F)N=C1N [Compound 14, N-(3-((2R,3S,5R)-6-amino-3,5-difluoro-2,5-dimethyl-2,3,4,5-tetrahydropyridin-2-yl)-4-fluorophenyl)-1-(difluoromethyl)-1H-pyrazole-3-carboxamide] | 45 nM | 112% | 15.8
C[C@@]1(F)C[C@H](F)[C@@](C)(c2cc(NC(=O)c3ccc(Cl)cn3)ccc2F)N=C1N [Compound 9, N-(3-((2R,3S,5R)-6-amino-3,5-difluoro-2,5-dimethyl-2,3,4,5-tetrahydropyridin-2-yl)-4-fluorophenyl)-5-chloropicolinamide] | 36 nM | 109% | 1.31
Cc1cc(C#N)cnc1C(=O)Nc1ccc(F)c([C@@]2(C)N=C(N)[C@@](C)(F)C[C@@H]2F)c1 [Compound 21, N-(3-((2R,3S,5S)-6-amino-3,5-difluoro-2,5-dimethyl-2,3,4,5-tetrahydropyridin-2-yl)-4-fluorophenyl)-5-cyano-3-methylpicolinamide] | 4.1 nM | 117% | 1.15

Source: patent publication US10059669B2, “2-amino-3,5-difluoro-3,6-dimethyl-6-phenyl-3,4,5,6-tetrahydropyridines as BACE1 inhibitors for treating alzheimer's disease” (H. Lundbeck A/S, priority 2014, dated 2018)
